Assay results: BindingDB's records for doi:10.1124/jpet.301.3.1166 (University of North Carolina, 2002)
“And” between values parts separate entries of the source, which are not always exact repeats. Identical values can stand only once.

Experiments:
D(2) dopamine receptor = D(2) dopamine receptor (Rattus norvegicus, UniProt P61169)
D(1A) dopamine receptor = D(1A) dopamine receptor (Rattus norvegicus, UniProt P18901)
Chain of D(1A) dopamine receptor (P18901 whole entry): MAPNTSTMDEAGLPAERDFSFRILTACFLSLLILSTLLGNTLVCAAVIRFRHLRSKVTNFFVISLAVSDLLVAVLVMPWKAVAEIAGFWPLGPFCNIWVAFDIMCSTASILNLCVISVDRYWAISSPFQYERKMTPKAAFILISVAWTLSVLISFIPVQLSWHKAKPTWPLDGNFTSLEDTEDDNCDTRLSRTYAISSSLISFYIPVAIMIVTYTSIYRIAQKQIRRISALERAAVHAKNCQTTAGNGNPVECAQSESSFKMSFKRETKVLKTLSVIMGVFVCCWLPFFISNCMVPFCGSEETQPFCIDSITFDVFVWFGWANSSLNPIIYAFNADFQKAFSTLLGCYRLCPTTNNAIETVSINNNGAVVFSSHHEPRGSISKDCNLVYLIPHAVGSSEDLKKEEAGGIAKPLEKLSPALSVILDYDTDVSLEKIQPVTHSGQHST

Chain of D(2) dopamine receptor (P61169 whole entry): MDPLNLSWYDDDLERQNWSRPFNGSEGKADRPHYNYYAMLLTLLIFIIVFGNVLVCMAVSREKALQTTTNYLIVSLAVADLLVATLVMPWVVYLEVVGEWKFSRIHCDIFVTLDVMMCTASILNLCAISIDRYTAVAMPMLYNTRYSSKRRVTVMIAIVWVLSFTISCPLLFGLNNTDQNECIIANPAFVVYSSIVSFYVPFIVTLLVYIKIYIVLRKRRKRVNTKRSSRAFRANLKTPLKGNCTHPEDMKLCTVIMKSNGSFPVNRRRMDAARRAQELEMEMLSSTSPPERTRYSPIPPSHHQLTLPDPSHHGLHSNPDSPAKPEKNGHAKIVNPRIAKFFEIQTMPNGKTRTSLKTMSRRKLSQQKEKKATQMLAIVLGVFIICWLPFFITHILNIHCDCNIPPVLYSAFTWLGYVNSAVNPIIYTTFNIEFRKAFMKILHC

## CCCN1Cc2ccccc2[C@@H]2c3cc(O)c(O)cc3CC[C@H]21 [N-n-propyldihydrexidine, N-Pr-DHX]
D(2) dopamine receptor
  Ki: 0.0065 µM and 0.02 µM
D(1A) dopamine receptor
  Ki: 0.32 µM
